Each structure is given as a SMILES string. Where a SMILES comes first, the peptide text is derived from it. [ ]: non-standard residue; d: D form. pGlu = O=C1CC[C@@H](C(=O)O)N1; Thz = O=C(O)[C@@H]1CSCN1 Some results are limits rather than exact numbers.

Consider ten compounds from ChEMBL document CHEMBL5291721, “A preclinical secondary pharmacology resource illuminates target-adverse drug reaction associations of marketed drugs” (Nat Commun, 2023).

The target of assay [1] is T1, 5-hydroxytryptamine receptor 1A (Homo sapiens, UniProt P08908).
T1 sequence (P08908 whole entry): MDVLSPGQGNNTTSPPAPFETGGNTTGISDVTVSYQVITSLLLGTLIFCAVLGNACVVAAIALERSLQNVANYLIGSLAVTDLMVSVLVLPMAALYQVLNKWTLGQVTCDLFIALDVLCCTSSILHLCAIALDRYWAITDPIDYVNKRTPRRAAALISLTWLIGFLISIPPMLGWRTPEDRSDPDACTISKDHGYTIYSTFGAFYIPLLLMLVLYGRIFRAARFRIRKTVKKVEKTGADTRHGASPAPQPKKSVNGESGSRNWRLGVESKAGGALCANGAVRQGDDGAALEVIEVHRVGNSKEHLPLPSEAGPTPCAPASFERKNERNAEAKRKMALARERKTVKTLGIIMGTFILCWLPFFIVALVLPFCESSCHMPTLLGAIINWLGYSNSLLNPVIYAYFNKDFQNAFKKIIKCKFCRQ
The format is functional, cell-based.

The target of another assay is Histamine H3 receptor (Homo sapiens, UniProt Q9Y5N1).
For assay [2], the target named is Beta-2 adrenergic receptor (Homo sapiens, UniProt P07550).
The next assay concerns the target T2, B2 bradykinin receptor (Homo sapiens, UniProt P30411).
T2 sequence (P30411 whole entry): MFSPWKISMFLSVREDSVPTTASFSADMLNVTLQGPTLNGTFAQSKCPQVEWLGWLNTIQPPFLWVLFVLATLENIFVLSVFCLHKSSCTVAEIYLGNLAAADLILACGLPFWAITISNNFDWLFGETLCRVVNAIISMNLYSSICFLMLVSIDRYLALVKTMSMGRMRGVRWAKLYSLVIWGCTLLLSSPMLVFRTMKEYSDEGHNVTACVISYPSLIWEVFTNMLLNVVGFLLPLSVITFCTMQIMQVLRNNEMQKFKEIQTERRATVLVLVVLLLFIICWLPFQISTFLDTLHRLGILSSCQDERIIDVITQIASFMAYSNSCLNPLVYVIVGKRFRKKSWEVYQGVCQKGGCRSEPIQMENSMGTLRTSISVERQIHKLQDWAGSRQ

In assay [3] the target is T3, Alpha-2C adrenergic receptor (Homo sapiens, UniProt P18825).
T3 sequence (P18825 whole entry): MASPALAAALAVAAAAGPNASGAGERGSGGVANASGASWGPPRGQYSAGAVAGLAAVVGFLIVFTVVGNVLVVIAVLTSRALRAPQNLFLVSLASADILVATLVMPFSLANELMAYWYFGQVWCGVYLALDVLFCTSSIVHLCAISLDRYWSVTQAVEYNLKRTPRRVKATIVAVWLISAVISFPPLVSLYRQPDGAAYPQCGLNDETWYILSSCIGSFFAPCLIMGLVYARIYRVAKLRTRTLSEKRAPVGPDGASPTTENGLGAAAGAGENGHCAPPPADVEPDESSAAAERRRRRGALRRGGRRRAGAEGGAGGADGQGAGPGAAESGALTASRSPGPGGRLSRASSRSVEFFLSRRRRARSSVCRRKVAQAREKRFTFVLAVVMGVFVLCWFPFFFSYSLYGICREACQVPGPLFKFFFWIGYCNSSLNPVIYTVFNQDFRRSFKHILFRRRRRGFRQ
The format is functional.

Assay [4] has as its target Voltage-dependent L-type calcium channel subunit alpha-1C (Rattus norvegicus, UniProt P22002). The format is functional.
In assay [5] the target is T4, 5-hydroxytryptamine receptor 3A (Homo sapiens, UniProt P46098).
T4 sequence (P46098 whole entry): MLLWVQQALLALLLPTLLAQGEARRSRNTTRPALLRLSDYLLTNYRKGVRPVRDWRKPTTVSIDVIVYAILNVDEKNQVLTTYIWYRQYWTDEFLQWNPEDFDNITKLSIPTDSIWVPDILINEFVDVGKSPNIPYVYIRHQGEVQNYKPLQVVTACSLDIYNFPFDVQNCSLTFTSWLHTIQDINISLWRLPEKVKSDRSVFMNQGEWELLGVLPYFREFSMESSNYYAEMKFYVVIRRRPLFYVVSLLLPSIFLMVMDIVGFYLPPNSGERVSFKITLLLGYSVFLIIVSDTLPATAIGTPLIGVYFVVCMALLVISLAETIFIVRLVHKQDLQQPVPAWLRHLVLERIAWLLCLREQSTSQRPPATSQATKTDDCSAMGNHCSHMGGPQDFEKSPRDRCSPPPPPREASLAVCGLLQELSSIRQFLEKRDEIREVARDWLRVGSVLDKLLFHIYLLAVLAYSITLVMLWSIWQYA
Type of assay: functional.

In assay [6] the target is Sodium-dependent noradrenaline transporter (Homo sapiens, UniProt P23975).
Assay [7] has as its target T5, Prostaglandin G/H synthase 1 (Rattus norvegicus, UniProt Q63921).
T5 sequence (Q63921 whole entry): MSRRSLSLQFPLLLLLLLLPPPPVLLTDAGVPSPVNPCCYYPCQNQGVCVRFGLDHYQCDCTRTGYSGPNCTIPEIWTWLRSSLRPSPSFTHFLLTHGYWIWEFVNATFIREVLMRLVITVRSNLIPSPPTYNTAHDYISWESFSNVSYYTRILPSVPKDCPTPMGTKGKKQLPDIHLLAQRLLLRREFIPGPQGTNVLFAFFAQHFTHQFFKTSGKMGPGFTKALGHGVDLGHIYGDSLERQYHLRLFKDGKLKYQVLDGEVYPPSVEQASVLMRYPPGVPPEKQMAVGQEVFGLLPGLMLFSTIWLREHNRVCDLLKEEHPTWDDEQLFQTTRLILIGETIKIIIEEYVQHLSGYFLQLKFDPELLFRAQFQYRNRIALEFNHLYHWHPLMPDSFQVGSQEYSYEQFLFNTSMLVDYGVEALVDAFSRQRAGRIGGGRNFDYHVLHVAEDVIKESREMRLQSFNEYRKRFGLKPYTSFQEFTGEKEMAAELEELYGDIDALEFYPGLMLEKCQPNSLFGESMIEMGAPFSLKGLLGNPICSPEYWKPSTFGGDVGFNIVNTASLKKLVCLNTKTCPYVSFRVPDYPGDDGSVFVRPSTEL
The format is functional.
Note: assay procedure not described here.

Sodium-dependent noradrenaline transporter, sequence (P23975 whole entry): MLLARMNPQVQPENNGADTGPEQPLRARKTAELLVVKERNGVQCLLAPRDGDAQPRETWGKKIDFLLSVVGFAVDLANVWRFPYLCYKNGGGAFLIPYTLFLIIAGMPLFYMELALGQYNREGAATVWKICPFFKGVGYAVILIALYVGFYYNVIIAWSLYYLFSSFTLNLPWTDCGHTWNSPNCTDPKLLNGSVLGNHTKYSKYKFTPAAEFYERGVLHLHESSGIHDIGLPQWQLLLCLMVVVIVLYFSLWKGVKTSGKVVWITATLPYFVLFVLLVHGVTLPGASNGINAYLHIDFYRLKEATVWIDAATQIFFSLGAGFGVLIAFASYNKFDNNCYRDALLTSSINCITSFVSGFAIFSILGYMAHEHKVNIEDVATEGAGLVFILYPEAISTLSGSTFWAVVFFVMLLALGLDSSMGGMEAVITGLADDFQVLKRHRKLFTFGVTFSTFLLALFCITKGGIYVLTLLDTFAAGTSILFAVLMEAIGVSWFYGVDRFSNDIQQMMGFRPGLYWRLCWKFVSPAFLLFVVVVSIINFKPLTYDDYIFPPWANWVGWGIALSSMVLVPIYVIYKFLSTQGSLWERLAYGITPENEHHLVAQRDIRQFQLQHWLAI
Voltage-dependent L-type calcium channel subunit alpha-1C, sequence (P22002 whole entry): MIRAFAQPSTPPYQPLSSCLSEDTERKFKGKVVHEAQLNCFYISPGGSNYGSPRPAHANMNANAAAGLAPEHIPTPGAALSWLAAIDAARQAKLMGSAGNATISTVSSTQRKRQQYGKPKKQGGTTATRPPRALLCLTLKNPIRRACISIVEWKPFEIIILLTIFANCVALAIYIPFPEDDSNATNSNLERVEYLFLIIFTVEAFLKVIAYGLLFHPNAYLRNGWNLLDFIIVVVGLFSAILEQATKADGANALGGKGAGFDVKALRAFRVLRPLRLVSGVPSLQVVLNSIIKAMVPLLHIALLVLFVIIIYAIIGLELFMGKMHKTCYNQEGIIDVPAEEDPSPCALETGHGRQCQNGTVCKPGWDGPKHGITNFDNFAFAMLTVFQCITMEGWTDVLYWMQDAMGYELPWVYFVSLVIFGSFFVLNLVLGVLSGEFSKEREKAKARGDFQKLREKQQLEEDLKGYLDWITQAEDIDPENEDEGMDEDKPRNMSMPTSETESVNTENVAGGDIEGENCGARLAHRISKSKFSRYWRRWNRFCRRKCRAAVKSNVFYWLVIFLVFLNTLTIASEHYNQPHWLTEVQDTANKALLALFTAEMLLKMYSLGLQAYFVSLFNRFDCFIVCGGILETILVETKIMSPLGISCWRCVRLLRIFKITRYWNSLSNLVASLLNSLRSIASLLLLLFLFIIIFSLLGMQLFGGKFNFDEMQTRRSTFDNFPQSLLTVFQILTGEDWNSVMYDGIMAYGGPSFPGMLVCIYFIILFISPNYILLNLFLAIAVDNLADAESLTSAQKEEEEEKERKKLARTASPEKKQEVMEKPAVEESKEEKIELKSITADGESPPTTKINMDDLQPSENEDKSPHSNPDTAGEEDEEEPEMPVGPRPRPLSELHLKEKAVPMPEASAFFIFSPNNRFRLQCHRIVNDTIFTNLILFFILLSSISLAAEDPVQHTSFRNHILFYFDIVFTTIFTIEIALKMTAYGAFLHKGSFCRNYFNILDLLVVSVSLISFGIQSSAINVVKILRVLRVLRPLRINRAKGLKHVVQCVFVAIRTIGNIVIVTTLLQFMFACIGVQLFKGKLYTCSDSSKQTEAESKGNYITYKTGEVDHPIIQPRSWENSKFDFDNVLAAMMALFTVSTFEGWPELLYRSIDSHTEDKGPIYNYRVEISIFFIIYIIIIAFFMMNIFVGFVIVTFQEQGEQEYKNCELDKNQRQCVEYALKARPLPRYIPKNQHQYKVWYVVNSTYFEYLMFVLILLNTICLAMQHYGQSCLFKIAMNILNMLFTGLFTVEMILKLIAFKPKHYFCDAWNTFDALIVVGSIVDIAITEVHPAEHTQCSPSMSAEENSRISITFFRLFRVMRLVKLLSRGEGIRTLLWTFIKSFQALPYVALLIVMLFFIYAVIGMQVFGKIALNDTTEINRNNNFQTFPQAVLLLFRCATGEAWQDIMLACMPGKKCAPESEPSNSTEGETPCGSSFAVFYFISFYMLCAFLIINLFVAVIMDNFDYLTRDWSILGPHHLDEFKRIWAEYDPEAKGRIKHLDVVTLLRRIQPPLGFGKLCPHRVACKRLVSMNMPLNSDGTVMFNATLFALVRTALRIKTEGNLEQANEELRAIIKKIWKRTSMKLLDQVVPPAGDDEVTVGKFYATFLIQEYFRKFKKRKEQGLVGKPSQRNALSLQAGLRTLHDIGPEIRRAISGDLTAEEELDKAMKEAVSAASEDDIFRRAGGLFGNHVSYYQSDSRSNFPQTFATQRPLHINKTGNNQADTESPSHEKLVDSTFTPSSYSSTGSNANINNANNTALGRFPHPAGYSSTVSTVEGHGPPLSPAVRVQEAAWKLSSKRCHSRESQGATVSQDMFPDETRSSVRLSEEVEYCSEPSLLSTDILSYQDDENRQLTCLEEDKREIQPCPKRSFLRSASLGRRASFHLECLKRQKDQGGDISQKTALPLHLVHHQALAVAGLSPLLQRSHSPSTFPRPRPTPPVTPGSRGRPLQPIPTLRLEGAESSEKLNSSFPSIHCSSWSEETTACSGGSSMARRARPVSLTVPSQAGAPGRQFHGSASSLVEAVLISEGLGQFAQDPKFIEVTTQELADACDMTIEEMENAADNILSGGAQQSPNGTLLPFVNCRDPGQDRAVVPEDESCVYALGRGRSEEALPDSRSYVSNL
Beta-2 adrenergic receptor, sequence (P07550 whole entry): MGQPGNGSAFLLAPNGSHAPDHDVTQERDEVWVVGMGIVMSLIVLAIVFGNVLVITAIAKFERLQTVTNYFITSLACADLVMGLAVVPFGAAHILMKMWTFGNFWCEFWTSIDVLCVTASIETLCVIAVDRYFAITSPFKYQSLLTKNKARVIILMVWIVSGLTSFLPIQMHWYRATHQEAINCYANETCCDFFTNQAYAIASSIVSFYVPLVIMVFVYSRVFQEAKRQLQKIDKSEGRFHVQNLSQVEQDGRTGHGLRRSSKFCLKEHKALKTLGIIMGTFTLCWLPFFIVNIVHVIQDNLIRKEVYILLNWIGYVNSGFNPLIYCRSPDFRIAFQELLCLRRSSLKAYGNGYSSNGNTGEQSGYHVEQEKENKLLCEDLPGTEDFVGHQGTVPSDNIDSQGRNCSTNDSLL
Histamine H3 receptor, sequence (Q9Y5N1 whole entry): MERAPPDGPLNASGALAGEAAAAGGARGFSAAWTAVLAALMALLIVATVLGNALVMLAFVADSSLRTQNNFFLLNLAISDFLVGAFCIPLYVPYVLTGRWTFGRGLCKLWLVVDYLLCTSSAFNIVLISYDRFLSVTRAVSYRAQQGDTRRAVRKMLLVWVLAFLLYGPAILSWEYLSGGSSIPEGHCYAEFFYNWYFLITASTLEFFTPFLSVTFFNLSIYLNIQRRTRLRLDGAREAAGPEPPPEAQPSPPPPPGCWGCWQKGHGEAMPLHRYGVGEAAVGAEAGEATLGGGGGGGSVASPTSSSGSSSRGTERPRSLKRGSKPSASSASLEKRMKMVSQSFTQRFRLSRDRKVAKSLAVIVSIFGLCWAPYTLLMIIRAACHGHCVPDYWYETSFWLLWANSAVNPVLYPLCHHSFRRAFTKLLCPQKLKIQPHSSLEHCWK

As to `O=C1CC[C@@H](C(=O)N2CSC[C@H]2C(=O)O)N1` [PIDOTIMOD] ([pGlu]-[Thz]-OH), the AC50 (in assay [1]; on Histamine H3 receptor; in assay [2]; on B2 bradykinin receptor; in [3]; in assay [4]) was > 30 µM each time. In addition, the AC50 in [5], in [6] and in [7] was > 30 µM each time.

As to `CCC(NC(C)C)C(O)c1ccc(O)c2[nH]c(=O)ccc12` (stereo not given) [PROCATEROL], the AC50 (as a rule, the concentration giving half of the maximal activity seen) in assay [1] was > 30 µM; at Histamine H3 receptor, > 30 µM; in assay [2], 0.2 µM; at B2 bradykinin receptor, > 30 µM; in assay [3], > 30 µM; in [4], > 30 µM. The half-maximal activity concentration (AC50) in [5], in [6] and in assay [7] was > 30 µM throughout.

With `CCC(=O)O[C@](Cc1ccccc1)(c1ccccc1)[C@H](C)CN(C)C` [PROPOXYPHENE], the AC50 in assay [1] was > 10 µM; at Histamine H3 receptor, > 10 µM; in assay [2], > 10 µM; on B2 bradykinin receptor, > 30 µM; in assay [3], > 10 µM; in [4] it was > 10 µM. The AC50 is > 30 µM in [5], > 10 µM in assay [6] and > 30 µM in assay [7].

For `C=CC[N+]1([C@H]2C[C@H]3[C@@H]4CC[C@H]5C[C@H](O)[C@@H](N6CCOCC6)C[C@]5(C)[C@H]4CC[C@]3(C)[C@H]2OC(C)=O)CCCC1` [ROCURONIUM], the half-maximal activity concentration (AC50) (in [1]; on Histamine H3 receptor; in assay [2]; at B2 bradykinin receptor; in [3]; in assay [4]) was > 30 µM each time. For the same compound, the half-maximal activity concentration (AC50) in [5], in assay [6] and in assay [7] was > 30 µM throughout.

On to `CCCN1CCCC[C@H]1C(=O)Nc1c(C)cccc1C` [ROPIVACAINE], for which the AC50 (in assay [1]; at Histamine H3 receptor; in assay [2]; at B2 bradykinin receptor; in [3]; in assay [4]) was > 30 µM each time. The concentration at half-maximal activity (AC50) in assay [5], in assay [6] and in assay [7] was > 30 µM each time.

`CCOC(=O)c1ccc(C#Cc2ccc3c(c2)C(C)(C)CCS3)nc1` [TAZAROTENE]: the AC50 is > 30 µM in [1]; > 10 µM at Histamine H3 receptor; > 10 µM in assay [2]; > 30 µM on B2 bradykinin receptor; > 10 µM in assay [3]; > 10 µM in [4]. The AC50 in assay [5], in [6] and in assay [7] was > 30 µM each time.

For `Cn1c(=O)c2c(ncn2CCOC(=O)C(C)(C)Oc2ccc(Cl)cc2)n(C)c1=O` [THEOFIBRATE], the AC50 (in assay [1]; on Histamine H3 receptor; in assay [2]; at B2 bradykinin receptor; in [3]; in assay [4]) was > 30 µM each time. Also, the AC50 in [5], in [6] and in assay [7] was > 30 µM each time.

Turning to `COc1cc(C(=O)NC2CCCNC2)cc(OC)c1OC` (stereo not given) [TROXIPIDE], the AC50 (in assay [1]; at Histamine H3 receptor; in assay [2]; at B2 bradykinin receptor; in [3]; in assay [4]) was > 30 µM throughout. Besides, the figures for the AC50 in [5], in assay [6] and in assay [7] were > 30 µM, > 30 µM and > 10 µM, respectively.

Regarding `CC(C(=O)O)c1ccc2c(c1)CC(=O)c1ccccc1S2` (stereo not given) [ZALTOPROFEN], the AC50 (in assay [1]; at Histamine H3 receptor; in [2]; at B2 bradykinin receptor; in assay [3]; in assay [4]) was > 30 µM throughout. Besides, the AC50 in assay [5], in assay [6] and in assay [7] was > 30 µM in each case.

On to `CC(c1cc2ccccc2s1)N(O)C(N)=O` (stereo not given) [ZILEUTON], for which the AC50 (in assay [1]; at Histamine H3 receptor; in assay [2]; at B2 bradykinin receptor; in assay [3]; in assay [4]) was > 10 µM each time. In addition, the AC50 was > 30 µM in assay [5], > 10 µM in [6] and > 30 µM in assay [7].
